Source: the supplement of paper PMC10307832

Legend:
Test in all cases: relative viability (nuclei count vs DMSO), 5 days (fraction); higher = more cells survive
[1] = compound: C=CCNC1=C2C[C@@H](C)C[C@H](OC)[C@H](O)[C@@H](C)/C=C(\C)[C@H](OC(N)=O)[C@@H](OC)/C=C\C=C(/C)C(=O)NC(=CC1=O)C2=O [17-AAG] + CC(=O)Nc1cccc(-n2c(=O)n(C3CC3)c(=O)c3c(Nc4ccc(I)cc4F)n(C)c(=O)c(C)c32)c1 [Trametinib] (partner 0.02 µM)
Summary of the method: (§1)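 Relative viability is defined as nuclei in treated wells over nuclei in vehicle wells. Duplicate plates were run and medians reported. Lung cancer cell lines in 1536-well plates were dosed by pin tool one day after seeding, with one drug or with a fixed anchor-drug dose plus five library-drug doses (not always all listed) in √10 steps, and nuclei were counted after 5 days.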

[2] = compound: C=CCNC1=C2C[C@@H](C)C[C@H](OC)[C@H](O)[C@@H](C)/C=C(\C)[C@H](OC(N)=O)[C@@H](OC)/C=C\C=C(/C)C(=O)NC(=CC1=O)C2=O [17-AAG] + CS(=O)(=O)CCNCc1ccc(-c2ccc3ncnc(Nc4ccc(OCc5cccc(F)c5)c(Cl)c4)c3c2)o1 [Lapatinib] (partner 2 µM)
Summary of the method: as §1

[3] = compound: C=CCNC1=C2C[C@@H](C)C[C@H](OC)[C@H](O)[C@@H](C)/C=C(\C)[C@H](OC(N)=O)[C@@H](OC)/C=C\C=C(/C)C(=O)NC(=CC1=O)C2=O [17-AAG] + O=C(c1cc(Cc2n[nH]c(=O)c3ccccc23)ccc1F)N1CCN(C(=O)C2CC2)CC1 [Olaparib] (partner 8 µM)
Summary of the method: as §1

[4] = compound: C=CCNC1=C2C[C@@H](C)C[C@H](OC)[C@H](O)[C@@H](C)/C=C(\C)[C@H](OC(N)=O)[C@@H](OC)/C=C\C=C(/C)C(=O)NC(=CC1=O)C2=O [17-AAG] + N=C(N)NC(=N)NCCc1ccccc1 [Phenformin] (partner 250 µM)
Summary of the method: as §1

Cell Line: COR-L 105
- relative viability ([1]; first compound 0.00128 µM): 0.473
- relative viability ([1]; first compound 0.004048 µM): 0.406
- relative viability ([1]; first compound 0.0128 µM): 0.501
- relative viability ([1]; first compound 0.04048 µM): 0.375
- relative viability ([1]; first compound 0.128 µM): 0.335
- relative viability ([2]; first compound 0.00128 µM): 0.352
- relative viability ([2]; first compound 0.004048 µM): 0.333
- relative viability ([2]; first compound 0.0128 µM): 0.344
- relative viability ([2]; first compound 0.04048 µM): 0.406
- relative viability ([2]; first compound 0.128 µM): 0.306
- relative viability ([3]; first compound 0.00128 µM): 0.601
- relative viability ([3]; first compound 0.004048 µM): 0.71
- relative viability ([3]; first compound 0.0128 µM): 0.778
- relative viability ([3]; first compound 0.04048 µM): 0.55
- relative viability ([3]; first compound 0.128 µM): 0.515
- relative viability ([4]; first compound 0.00128 µM): 0.55
- relative viability ([4]; first compound 0.004048 µM): 0.453
- relative viability ([4]; first compound 0.0128 µM): 0.463
- relative viability ([4]; first compound 0.04048 µM): 0.354
- relative viability ([4]; first compound 0.128 µM): 0.299

Cell Line: LK-2
- relative viability ([1]; first compound 0.00128 µM): 0.85
- relative viability ([1]; first compound 0.004048 µM): 0.846
- relative viability ([1]; first compound 0.0128 µM): 0.789
- relative viability ([1]; first compound 0.04048 µM): 0.577
- relative viability ([1]; first compound 0.128 µM): 0.184
- relative viability ([2]; first compound 0.00128 µM): 1.04
- relative viability ([2]; first compound 0.004048 µM): 1.01
- relative viability ([2]; first compound 0.0128 µM): 0.752
- relative viability ([2]; first compound 0.04048 µM): 0.464
- relative viability ([2]; first compound 0.128 µM): 0.158
- relative viability ([3]; first compound 0.00128 µM): 0.831
- relative viability ([3]; first compound 0.004048 µM): 0.765
- relative viability ([3]; first compound 0.0128 µM): 0.266
- relative viability ([3]; first compound 0.04048 µM): 0.149
- relative viability ([3]; first compound 0.128 µM): 0.123
- relative viability ([4]; first compound 0.00128 µM): 0.462
- relative viability ([4]; first compound 0.004048 µM): 0.478
- relative viability ([4]; first compound 0.0128 µM): 0.194
- relative viability ([4]; first compound 0.04048 µM): 0.158
- relative viability ([4]; first compound 0.128 µM): 0.135

Cell Line: NCI-H838
- relative viability ([1]; first compound 0.00128 µM): 0.536
- relative viability ([1]; first compound 0.004048 µM): 0.487
- relative viability ([1]; first compound 0.0128 µM): 0.126
- relative viability ([1]; first compound 0.04048 µM): 0.115
- relative viability ([1]; first compound 0.128 µM): 0.1
- relative viability ([2]; first compound 0.00128 µM): 1.02
- relative viability ([2]; first compound 0.004048 µM): 0.878
- relative viability ([2]; first compound 0.0128 µM): 0.141
- relative viability ([2]; first compound 0.04048 µM): 0.121
- relative viability ([2]; first compound 0.128 µM): 0.0916
- relative viability ([3]; first compound 0.00128 µM): 0.768
- relative viability ([3]; first compound 0.004048 µM): 0.591
- relative viability ([3]; first compound 0.0128 µM): 0.139
- relative viability ([3]; first compound 0.04048 µM): 0.128
- relative viability ([3]; first compound 0.128 µM): 0.133
- relative viability ([4]; first compound 0.00128 µM): 0.543
- relative viability ([4]; first compound 0.004048 µM): 0.327
- relative viability ([4]; first compound 0.0128 µM): 0.118
- relative viability ([4]; first compound 0.04048 µM): 0.132
- relative viability ([4]; first compound 0.128 µM): 0.0945

Cell Line: SK-LU-1
- relative viability ([1]; first compound 0.00128 µM): 0.436
- relative viability ([1]; first compound 0.004048 µM): 0.473
- relative viability ([1]; first compound 0.0128 µM): 0.217
- relative viability ([1]; first compound 0.04048 µM): 0.195
- relative viability ([1]; first compound 0.128 µM): 0.216
- relative viability ([2]; first compound 0.00128 µM): 0.812
- relative viability ([2]; first compound 0.004048 µM): 0.545
- relative viability ([2]; first compound 0.0128 µM): 0.454
- relative viability ([2]; first compound 0.04048 µM): 0.216
- relative viability ([2]; first compound 0.128 µM): 0.14
- relative viability ([3]; first compound 0.00128 µM): 0.512
- relative viability ([3]; first compound 0.004048 µM): 0.439
- relative viability ([3]; first compound 0.0128 µM): 0.301
- relative viability ([3]; first compound 0.04048 µM): 0.153
- relative viability ([3]; first compound 0.128 µM): 0.173
- relative viability ([4]; first compound 0.00128 µM): 0.484
- relative viability ([4]; first compound 0.004048 µM): 0.214
- relative viability ([4]; first compound 0.0128 µM): 0.119
- relative viability ([4]; first compound 0.04048 µM): 0.116
- relative viability ([4]; first compound 0.128 µM): 0.0908

Cell Line: NCI-H2023
- relative viability ([1]; first compound 0.00128 µM): 0.557
- relative viability ([1]; first compound 0.004048 µM): 0.266
- relative viability ([1]; first compound 0.0128 µM): 0.0867
- relative viability ([1]; first compound 0.04048 µM): 0.0826
- relative viability ([1]; first compound 0.128 µM): 0.0692
- relative viability ([2]; first compound 0.00128 µM): 0.872
- relative viability ([2]; first compound 0.004048 µM): 0.675
- relative viability ([2]; first compound 0.0128 µM): 0.0806
- relative viability ([2]; first compound 0.04048 µM): 0.106
- relative viability ([2]; first compound 0.128 µM): 0.0805
- relative viability ([3]; first compound 0.00128 µM): 0.472
- relative viability ([3]; first compound 0.004048 µM): 0.163
- relative viability ([3]; first compound 0.0128 µM): 0.0796
- relative viability ([3]; first compound 0.04048 µM): 0.0702
- relative viability ([3]; first compound 0.128 µM): 0.0752
- relative viability ([4]; first compound 0.00128 µM): 0.416
- relative viability ([4]; first compound 0.004048 µM): 0.226
- relative viability ([4]; first compound 0.0128 µM): 0.0687
- relative viability ([4]; first compound 0.04048 µM): 0.0792
- relative viability ([4]; first compound 0.128 µM): 0.0691

Cell Line: NCI-H441
- relative viability ([1]; first compound 0.00128 µM): 0.454
- relative viability ([1]; first compound 0.004048 µM): 0.439
- relative viability ([1]; first compound 0.0128 µM): 0.148
- relative viability ([1]; first compound 0.04048 µM): 0.132
- relative viability ([1]; first compound 0.128 µM): 0.0927
- relative viability ([3]; first compound 0.00128 µM): 0.555
- relative viability ([3]; first compound 0.004048 µM): 0.547
- relative viability ([3]; first compound 0.0128 µM): 0.208
- relative viability ([3]; first compound 0.04048 µM): 0.135
- relative viability ([3]; first compound 0.128 µM): 0.124
- relative viability ([4]; first compound 0.00128 µM): 0.877
- relative viability ([4]; first compound 0.004048 µM): 0.397
- relative viability ([4]; first compound 0.0128 µM): 0.184
- relative viability ([4]; first compound 0.04048 µM): 0.182
- relative viability ([4]; first compound 0.128 µM): 0.129

Cell Line: NCI-H1666
- relative viability ([1]; first compound 0.00128 µM): 0.858
- relative viability ([1]; first compound 0.004048 µM): 0.826
- relative viability ([1]; first compound 0.0128 µM): 0.639
- relative viability ([1]; first compound 0.04048 µM): 0.575
- relative viability ([1]; first compound 0.128 µM): 0.481
- relative viability ([2]; first compound 0.00128 µM): 0.682
- relative viability ([2]; first compound 0.004048 µM): 0.595
- relative viability ([2]; first compound 0.0128 µM): 0.234
- relative viability ([2]; first compound 0.04048 µM): 0.261
- relative viability ([2]; first compound 0.128 µM): 0.219
- relative viability ([3]; first compound 0.00128 µM): 0.756
- relative viability ([3]; first compound 0.004048 µM): 0.721
- relative viability ([3]; first compound 0.0128 µM): 0.712
- relative viability ([3]; first compound 0.04048 µM): 0.526
- relative viability ([3]; first compound 0.128 µM): 0.556
- relative viability ([4]; first compound 0.00128 µM): 0.547
- relative viability ([4]; first compound 0.004048 µM): 0.56
- relative viability ([4]; first compound 0.0128 µM): 0.432
- relative viability ([4]; first compound 0.04048 µM): 0.316
- relative viability ([4]; first compound 0.128 µM): 0.329
